Results taken from patent US6492373B2, “6-fluoro-1,4-dihydro-7-[4-(2-hydroxyiminoethyl)-1-piperazinyl]-4-oxoquinoline-3-carboxylic acid derivatives, their preparation and pharmaceutical compositions” (Pharmaceutical Industry Technology and Development Center, priority 2000, dated 2002).
In brackets after ≈: the same amount, converted by molar mass.

What was measured:
[1] = tested on: Staphylococcus aureus, Methicillin Resistant (MRSA); assay: In vitro antibacterial activity, MIC by broth dilution; assay type: cell-based; conditions: for MIC: Staphylococcus aureus, MRSA, 20-72 hours at 37° C., Mueller-Hinton broth
[2] = tested on: Mycobacterium ranae; assay: as above; assay type: cell-based; conditions: for MIC: Mycobacterium, 20-72 hours at 37° C., Brain Heart Infusion broth
[3] = tested on: Escherichia coli; assay: as above; assay type: cell-based; conditions: for MIC: Escherichia coli, 20-72 hours at 37° C., Nutrient Broth
[4] = tested on: Pseudomonas aeruginosa; assay: as above; assay type: cell-based; conditions: for MIC: Pseudomonas aeruginosa, 20-72 hours at 37° C., Nutrient Broth
[5] = tested on: Proteus vulgaris; assay: In vitro antibacterial activity, MIC by broth dilution; assay type: cell-based; conditions: for MIC: Proteus vulgaris, 20-72 hours at 37° C., Mueller-Hinton broth
[6] = tested on: Klebsiella pneumoniae; assay: as above; assay type: cell-based
[7] = tested on: Enterococcus faecalis, Vancomycin resistant, clinical isolates; assay: as above; assay type: cell-based; conditions: for MIC: Enterococcus faecalis, 20-72 hours at 37° C., Tryptic Soy Broth with 7% calf serum
[8] = tested on: Staphylococcus pneumoniae, Erythromycin and Ampicillin resistant, clinical isolates; assay: as above; assay type: cell-based; conditions: for MIC: Staphylococcus, 20-72 hours at 37° C., Tryptic Soy Broth with 7% calf serum
[9] = tested on: HOP-62 (non-small cell lung cancer); assay: NCI in vitro tumor cell growth inhibition (GI50); assay type: cell-based; conditions: Homo sapiens
[10] = tested on: CCRF-CEM (leukemia); assay: NCI in vitro tumor cell growth inhibition (GI50); assay type: cell-based; conditions: Homo sapiens
[11] = tested on: RPMI-8226 (leukemia); assay: NCI in vitro tumor cell growth inhibition (GI50); assay type: cell-based; conditions: Homo sapiens
[12] = tested on: CAKI-1 (renal cancer); assay: NCI in vitro tumor cell growth inhibition (GI50); assay type: cell-based; conditions: Homo sapiens
[13] = tested on: EKVX (non-small cell lung cancer); assay: NCI in vitro tumor cell growth inhibition (GI50); assay type: cell-based; conditions: Homo sapiens
[14] = tested on: 60 human tumor cell lines; assay: NCI in vitro tumor cell growth inhibition, whole panel; assay type: cell-based
[15] = tested on: NCI-H226 (non-small cell lung cancer); assay: NCI in vitro tumor cell growth inhibition (GI50); assay type: cell-based; conditions: Homo sapiens
[16] = tested on: HL-60 (TB) (leukemia); assay: NCI in vitro tumor cell growth inhibition (GI50); assay type: cell-based; conditions: Homo sapiens
[17] = tested on: SK-OV-4 (ovarian cancer); assay: NCI in vitro tumor cell growth inhibition (GI50); assay type: cell-based; conditions: Homo sapiens
[18] = tested on: SK-OV-3 (ovarian cancer); assay: NCI in vitro tumor cell growth inhibition (GI50); assay type: cell-based; conditions: Homo sapiens
[19] = tested on: SK-OV-5 (ovarian cancer); assay: NCI in vitro tumor cell growth inhibition (GI50); assay type: cell-based; conditions: Homo sapiens
[20] = tested on: UO-31 (renal cancer); assay: NCI in vitro tumor cell growth inhibition (GI50); assay type: cell-based; conditions: Homo sapiens
[21] = 20-72 hours at 37° C., Nutrient Broth
[22] = Gentamicin, footnote b: MIC in μg/ml

Molecule	MIC [1] [µM]	MIC [2] [µM]	MIC [3] [µM]	MIC [4] [µM]	melting point	MIC [5] [µM]	MIC, Kp [6, 21] [µM]	MIC [7] [µM]	MIC [8] [µM]	further results
CCn1cc(C(=O)O)c(=O)c2cc(F)c(N3CCN(CC(=NO)c4ccccc4)CC3)cc21 [Exp. 3, 1-Ethyl-6-fluoro-4-oxo-7-[4-(2-hydroxyimino-2-phenylethyl)-1-piperazinyl]-1,4-dihydroquinoline-3-carboxylic acid]	0.44 (≈ 0.199 µg/mL)	55.3 (≈ 25 µg/mL)	0.86 (≈ 0.389 µg/mL)	13.8 (≈ 6.24 µg/mL)	203 °C (dec.)	3.45 (≈ 1.56 µg/mL)	0.22			
CCn1cc(C(=O)O)c(=O)c2cc(F)c(N3CCN(CC(=O)c4ccccc4)CC3)c(F)c21 [Exp. 4, 1-Ethyl-6,8-difluoro-1,4-dihydro-4-oxo-7-(4-phenacyl-1-piperazinyl)-quinoline-3-carboxylic acid]	1.71 (≈ 0.779 µg/mL)	3.43 (≈ 1.56 µg/mL)	0.22 (≈ 0.1 µg/mL)	0.86 (≈ 0.392 µg/mL)	167 °C (dec.)	0.22 (≈ 0.1 µg/mL)	0.055	13.7 (≈ 6.24 µg/mL)	13.7 (≈ 6.24 µg/mL)	
CCn1cc(C(=O)O)c(=O)c2cc(F)c(N3CCN(CC(=NOC)c4ccc(OC)cc4)CC3)cc21 [Exp. 7, 1-Ethyl-6-fluoro-7-{4-[2-methoxyimino-2-(4-methoxyphenyl)-ethyl]-1-piperazinyl}-4-oxo-1,4-dihydroquinoline-3-carboxylic acid]	1.57 (≈ 0.78 µg/mL)	202 (≈ 100 µg/mL)	6.31 (≈ 3.13 µg/mL)	202 (≈ 100 µg/mL)	165 °C (dec.)	6.31 (≈ 3.13 µg/mL)	1.57	12.6 (≈ 6.26 µg/mL)	12.6 (≈ 6.26 µg/mL)	
CCn1cc(C(=O)O)c(=O)c2cc(F)c(N3CCN(C(=N)C(O)c4ccc(F)cc4)CC3)c(F)c21 (stereo not drawn) [Exp. 11, 1-Ethyl-6,8-difluoro-7-{4-[2-(4-fluorophenyl)-2-hydroxy-iminoethyl]-1-piperazinyl}-4-oxo-1,4-dihydro-3-quinolinecarboxylic acid]					201 °C (dec.)					
COc1ccc(C(CN2CCN(c3cc4c(cc3F)c(=O)c(C(=O)O)cn4-c3ccc([N+](=O)[O-])cc3F)CC2)=NO)cc1 [Exp. 8, 1-(4-Nitro-2-fluorophenyl)-6-fluoro-7-{4-[2-hydroxyimino-2-(4-methoxyphenyl)ethyl]-1-piperazinyl}-4-oxo-1,4-dihydroquinoline-3-carboxylic acid]	0.34 (≈ 0.202 µg/mL)	21.1 (≈ 12.5 µg/mL)	1.32 (≈ 0.783 µg/mL)	42.2 (≈ 25 µg/mL)		> 169	0.08	5.28 (≈ 3.13 µg/mL)	1.32 (≈ 0.783 µg/mL)	
CC1COc2c(N3CCN(C)CC3)c(F)cc3c(=O)c(C(=O)O)cn1c23 (stereo not drawn) [Ofloxacin, reference compound]	1.08 (≈ 0.39 µg/mL)	1.08 (≈ 0.39 µg/mL)	0.28 (≈ 0.101 µg/mL)	2.16 (≈ 0.781 µg/mL)		0.069 (≈ 0.0249 µg/mL)	0.036	4.32 (≈ 1.56 µg/mL)	4.32 (≈ 1.56 µg/mL)	
CCn1cc(C(=O)O)c(=O)c2cc(F)c(N3CCN(CC(=NO)c4ccc(OC)cc4)CC3)cc21 [Exp. 5, 1-Ethyl-6-fluoro-7-{4-[2-hydroxyimino-2-(4-methoxyphenyl)-ethyl]-1-piperazinyl}-4-oxo-1,4-dihydroquinoline-3-carboxylic acid]	0.41 (≈ 0.198 µg/mL)	104 (≈ 50.2 µg/mL)	1.62 (≈ 0.782 µg/mL)	25.9 (≈ 12.5 µg/mL)	221 °C (dec.)	3.24 (≈ 1.56 µg/mL)	0.027	3.24 (≈ 1.56 µg/mL)	13 (≈ 6.26 µg/mL)	GI50 [9]: 52.3 µM; GI50 [10]: 24.4 µM; GI50 [11]: 38.4 µM; GI50 [12]: 6.91 µM; GI50 [13]: 46.8 µM; GI50 ([14]; Homo sapiens, Mean values over 60 cell lines tested): 31.8 µM; Range ([14]; Ratio of GI50 value for the least sensitive cell to the most sensitive cell): 182; GI50 [15]: 93.3 µM; GI50 [16]: 17.7 µM; GI50 [17]: 55.1 µM; GI50 [18]: 37.2 µM; GI50 [19]: > 100 µM; GI50 [20]: 550 nM
COc1ccc(C(=O)CN2CCN(c3cc4c(cc3F)c(=O)c(C(=O)O)cn4-c3ccc(N)cc3F)CC2)cc1 [Exp. 12, 1-(4-amino-2-fluorophenyl)-6-fluoro-7-{4-[2-(4-methoxy-phenyl)-2-oxoethyl]-1-piperazinyl}-4-oxo-1,4-dihydroquinoline-3-carboxylic acid]	0.55 (≈ 0.302 µg/mL)	18.2 (≈ 9.98 µg/mL)	0.55 (≈ 0.302 µg/mL)	5.74 (≈ 3.15 µg/mL)	143 °C (dec.)	18.2 (≈ 9.98 µg/mL)	0.05	5.47 (≈ 3 µg/mL)	1.82 (≈ 0.998 µg/mL)	
CCn1cc(C(=O)O)c(=O)c2cc(F)c(N3CCN(CC(=NO)c4ccc(OC)cc4)CC3)c(F)c21 [Exp. 6, 1-Ethyl-6,8-difluoro-7-{4-[2-hydroxyimino-2-(4-methoxy-phenyl)ethyl]-1-piperazinyl}-4-oxo-1,4-dihydroquinoline-3-carboxylic acid]	0.2 (≈ 0.1 µg/mL)	6.34 (≈ 3.17 µg/mL)	0.4 (≈ 0.2 µg/mL)	3.16 (≈ 1.58 µg/mL)	176 °C (dec.)	0.4 (≈ 0.2 µg/mL)	0.10	3.16 (≈ 1.58 µg/mL)	6.34 (≈ 3.17 µg/mL)	
CCn1cc(C(=O)O)c(=O)c2cc(F)c(N3CCN(CC(C)=NO)CC3)cc21 [Exp. 2, 1-Ethyl-6-fluoro-7-[4-(2-hydroxyiminopropyl)-1-piperazinyl]-4-oxo-1,4-dihydroquinoline-3-carboxylic acid]	0.51 (≈ 0.199 µg/mL)	32.1 (≈ 12.5 µg/mL)	0.51 (≈ 0.199 µg/mL)	16 (≈ 6.25 µg/mL)	218 °C (dec.)	2 (≈ 0.781 µg/mL)	0.13			
Gentamicin [reference compound]										MIC, EfVRE [7, 22]: 50 µg/mL; MIC, MRSA [1, 22]: 0.78 µg/mL; MIC, Mr [2, 22]: 0.20 µg/mL; MIC, Ec [3, 22]: 0.20 µg/mL; MIC, Pa [4, 22]: 0.39 µg/mL; MIC, SpEAR [8, 22]: 100 µg/mL; MIC, Pv [5, 22]: 0.1 µg/mL; MIC, Kp [6, 22]: 0.2 µg/mL
CCn1cc(C(=O)O)c(=O)c2cc(F)c(N3CCNCC3)cc21 [Norfloxacin, reference compound]	4.89 (≈ 1.56 µg/mL)	9.81 (≈ 3.13 µg/mL)	0.63 (≈ 0.201 µg/mL)	1.22 (≈ 0.39 µg/mL)		0.16 (≈ 0.0511 µg/mL)	0.041	9.81 (≈ 3.13 µg/mL)	19.6 (≈ 6.26 µg/mL)	
CCn1cc(C(=O)O)c(=O)c2cc(F)c(N3CCN(CC(C)NN)CC3)cc21 (stereo not drawn) [Exp. 1, 1-Ethyl-6-fluoro-7-[4-(2-hydrazinopropyl)-1-piperazinyl]-4-oxo-1,4-dihydroquinoline-3-carboxylic acid]	4.01 (≈ 1.57 µg/mL)	16.1 (≈ 6.3 µg/mL)	2.01 (≈ 0.787 µg/mL)	16.1 (≈ 6.3 µg/mL)	208 °C (dec.)	2.01 (≈ 0.787 µg/mL)	0.064	16.1 (≈ 6.3 µg/mL)	32.1 (≈ 12.6 µg/mL)	
